Where “and” joins values, the source holds several entries; their conditions need not be identical. Equal entries are not always repeated. Where two headings read alike, the source gives them in different places. Where no end group is shown, it is not given here.
Assays:
Assay type in all cases: cell-based
NMU2 F224A = target: T1, NMU2 F224A (Homo sapiens, UniProt Q9GZQ4, F224A); experiment: IP accumulation assay, NMU2 mutant F224A; settings: IP accumulation
T1 construct: HA signal peptide (N); expressed in transfected cells; host or cells: HEK 293F, transient transfection, PTT5 vector
T1 sequence (Q9GZQ4 whole entry F224A): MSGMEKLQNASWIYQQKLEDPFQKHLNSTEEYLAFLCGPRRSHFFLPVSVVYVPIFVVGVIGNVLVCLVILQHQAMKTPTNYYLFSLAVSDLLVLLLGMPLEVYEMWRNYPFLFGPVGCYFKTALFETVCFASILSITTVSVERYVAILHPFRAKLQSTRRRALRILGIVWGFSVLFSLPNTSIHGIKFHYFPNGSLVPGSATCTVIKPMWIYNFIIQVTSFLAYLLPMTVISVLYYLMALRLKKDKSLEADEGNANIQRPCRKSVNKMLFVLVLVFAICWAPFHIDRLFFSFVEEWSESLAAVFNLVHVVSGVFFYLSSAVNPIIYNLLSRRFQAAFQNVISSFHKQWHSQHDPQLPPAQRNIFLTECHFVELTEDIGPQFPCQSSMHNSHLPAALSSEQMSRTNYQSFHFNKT
Protocol: (§1) NMU2 constructs of WT and mutants were constructed into PTT5 vector (Invitrogen), as mentioned above. HEK 293F cells were transiently transfected with WT or mutants with total of 2000 ng plasmid DNA using transfection reagent (PEI MAX 2000, Polysciences) and cultivated at 37 °C with 5% CO2. Cells were collected after 48-h transfection. IP accumulation was tested by IP-One Gq assay kit (Cisbio Bioassays, 62IPAPEJ) following the instruction manual. In general, cells were resuspended with 1× HBSS buffer containing 20 mM LiCl (stimulation buffer) and seeded into the white 384-well microplates (Proxi Plate^TM-384 Plus, PerkinElmer) with a density of 20,000 per well. Cells were preincubated with 10^−5 M R-PSOP (provided by Boehringer Ingelheim company, Germany) and gradient concentration from 10^−4 to 10^−11 M of NMU-25 or gradient concentration 10^−4 to 10^−11 M of NMU-25 alone in stimulation buffer at 37 °C for 90 min. The cryptate-labeled anti-IP1 monoclonal antibody and d2-labeled IP1 were diluted with lysis & detection buffer (1:20) and added to each well by 3 μl, respectively. The plates were incubated at room temperature for 60 minutes and then read in a Synerg^TM H1 microplate reader (BioTek) with excitation at 330 nm and emission at 620 and 665 nm. The IP1 production was calculated by a standard dose–response curve and analyzed by GraphPad Prism 8.0.

NMU2 F316A = target: T2, NMU2 F316A (Homo sapiens, UniProt Q9GZQ4, F316A); experiment: TRUPATH assay, NMU2 mutant F316A
T2 construct: HA signal peptide (N); expressed in transfected cells; host or cells: HEK 293F
T2 sequence (Q9GZQ4 whole entry F316A): as the sequence (Q9GZQ4 whole entry F224A) above, with A224F, F316A counted along it
Protocol: (§2) The plasmids of Gαi1, Gβ3, and Gγ9 used for the TRUPATH assay were purchased from Addgene (TRUPATH Kit, #1000000163). NMU2 constructs of WT and mutants were constructed into a PTT5 vector (Invitrogen) with an N-terminal HA signal peptide followed by a Flag tag. HEK 293F cells were transiently transfected with WT or mutants of NMU2, Gαi1, Gβ3, and Gγ9 at an […] ratio of 4:1:1:1 with a total of 3500 ng plasmid DNA using a transfection reagent (PEI MAX 2000, Polysciences) and cultivated at 37 °C with 5 % CO2. Cells were collected after 48-h transfection. The expression level of the receptor was measured by incubating 10 μl cells with 15 μl TBS buffer supplemented with 4% bovine serum albumin, 20% (v/v) viability staining solution7-AAD (Invitrogen, Cat#00-6993-50), and ANTI-FLAG M2-FITC antibody (Sigma, F4049; 1:100 diluted by TBS) at 4 °C for 20 min. After incubation, 175 μl TBS buffer was added, and the fluorescence signal on the cell surface was detected by an FCM (flow cytometry) reader (Millipore). The cells were diluted with 1× HBSS (Hank’s balanced salt solution) balanced buffer supplemented with 25 mM HEPES, pH 7.4, and seeded onto the 96-well opaque cell culture plates (Beyotime) at a density of 18,000 cells per well by 60 μl. Freshly prepared 50 μM coelenterazine 400a (Nanolight Technologies) was added into the well by 10 μl. After a 5 min equilibration time in the darkness, plates were then read in a Synerg^TM H1 microplate reader (BioTek) with excitation at 395 nm and emission at 410 and 515 nm by serially three times. Then, 30 μl of 3.3× agonists were added into the wells with a gradient final concentration from 10^−4–10^−13 M. Plates were read immediately again by serially five times. Data were processed and analyzed following the method in the literature by using GraphPad Prism 8.0.

NMU2 = target: T3, NMU2 (Homo sapiens, UniProt Q9GZQ4); experiment: IP accumulation assay (IP-One Gq kit), WT NMU2; settings: IP accumulation
T3 construct: HA signal peptide (N); expressed in transfected cells; host or cells: HEK 293F
T3 sequence (Q9GZQ4 whole entry): as the sequence (Q9GZQ4 whole entry F224A) above, with A224F counted along it
Protocol: as §1

NMU2 N306Q = target: T4, NMU2 N306Q (Homo sapiens, UniProt Q9GZQ4, N306Q); experiment: TRUPATH assay, NMU2 mutant N306Q
T4 construct: HA signal peptide (N); expressed in transfected cells; host or cells: HEK 293F
T4 sequence (Q9GZQ4 whole entry N306Q): as the sequence (Q9GZQ4 whole entry F224A) above, with A224F, N306Q counted along it
Protocol: as §2

NMU2 F305A = target: T5, NMU2 F305A (Homo sapiens, UniProt Q9GZQ4, F305A); experiment: TRUPATH assay, NMU2 mutant F305A
T5 construct: HA signal peptide (N); expressed in transfected cells; host or cells: HEK 293F
T5 sequence (Q9GZQ4 whole entry F305A): as the sequence (Q9GZQ4 whole entry F224A) above, with A224F, F305A counted along it
Protocol: as §2

[1] = read-out: pEC50±SEM, NmU-25 alone (converted)
[2] = read-out: pEC50 mean±SEM (converted)

With FRVDEEFQSPFASQSRGYFLFRPRN-NH2 [NmU-25] the EC50 (NMU2 F224A; read-out: EC50, NmU-25 alone) was 46 nM, the EC50 (NMU2 F224A; [1]) was 45.7 nM and the “EC50 ratio EC50(mutant)/EC50(WT)” value (NMU2 F316A) was 39. For the same substance, the “G protein activation (TRUPATH), dose-response point” value (shortened to “G protein activation (TRUPATH)”) (NMU2 F316A; Log [agonist] M -4) was 89.6236 and 94.3509 and 81.0469 and 109.176, the “G protein activation (TRUPATH)” value (NMU2 F316A; Log [agonist] M -5) was 58.7715 and 110.343 and 86.8329 and 108.262 and the “ΔpEC50 (from WT)” value (NMU2 F316A; individual experiments) was -1.816 and -2.03 and -0.9173 and -1.079. The EC50 (NMU2 F316A; read-out: EC50) was 1340 nM, the EC50 (NMU2 F316A; [2]) was 1350 nM and the EC50 (NMU2; read-out: EC50, NmU-25 alone) was 17 nM. For the same substance, the EC50 (NMU2; [1]) was 16.6 nM, the “EC50 ratio EC50(mutant)/EC50(WT)” value (NMU2 N306Q) was 14 and the “Span (window between Emax and minimal agonist response)” value (NMU2 N306Q) was 101±10 % of WT. For the same substance, the “G protein activation (TRUPATH)” value (NMU2 N306Q; Log [agonist] M -4) was 89.9582 and 52.9953 and 88.5352, the “G protein activation (TRUPATH)” value (NMU2 N306Q; Log [agonist] M -5) was 95.8006 and 91.3095 and 87.6434 and the “ΔpEC50 (from WT)” value (NMU2 N306Q; individual experiments) was -1.093 and -0.9304 and -1.223. For the same substance, the EC50 (NMU2 N306Q; read-out: EC50) was 466 nM, the EC50 (NMU2 N306Q; [2]) was 468 nM and the “EC50 ratio EC50(mutant)/EC50(WT)” value (NMU2 F305A) was 77. For the same substance, the “Span (window between Emax and minimal agonist response)” value (NMU2 F305A) was 95±11 % of WT, the “G protein activation (TRUPATH)” value (NMU2 F305A; Log [agonist] M -4) was 46.0579 and 58.1697 and 76.8594 and 61.8818 and the “ΔpEC50 (from WT)” value (NMU2 F305A; individual experiments) was -2.165 and -2.457 and -1.8628 and -2.734. The Emax (NMU2 F305A; peer review file) was 83%, the potency reduction (NMU2 F305A; peer review file) was 33 fold and the EC50 (NMU2 F305A; read-out: EC50) was 2600 nM. For the same substance, the EC50 (NMU2 F305A; [2]) was 2630 nM.

From PMC9794833, “Ligand recognition and activation of neuromedin U receptor 2” (Nature Communications, 2022)
